Patent US20060166934A1, “Composition comprising phytosphingosine derivatives for apoptosis induction” (Tae-Yoon Kim, priority 2002, published 2006)
Like-named read-outs stand apart in the source and are kept apart here.

What was measured:
[1] = MTT assay, combined treatment with UVB irradiation; assay type: cell-based, human; settings: human, HaCaT cells, HaCaT, read-out: Cell viability
Procedure, shortened: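 HaCaT cells in PBS irradiated with 200 J/m^2 UVB, then returned to DMEM and treated with test compounds for 24 h. Viability by MTT (2 mg/ml, 4 h), formazan dissolved in DMSO and read at 540 nm.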

[2] = MTT assay, cytotoxicity in immune cells separated from spleen of mice; assay type: cell-based; settings: BDF, mouse
Method: (§1) The effect of the composition of the present invention on the cytotoxicity in immune cells (T cells, B cells, macrophages, monocytes, etc.) was examined. The spleen was removed from normal mice (BDF) and single cells were obtained from the spleen by mechanical aggregation method. And mononuclear cells containing T cells, B cells, macrophages and monocytes were isolated from single cells by density gradient centrifugation method using Ficoll Hypaque. Briefly, single cells were treated with PBS and overlayed on Ficoll Hypaque and centrifuged at 1500 rpm for 30 min. After centrifugation, the cells around the boundary of the Ficoll-Hapaque were collected and washed three times with PBS. The isolated cells were cultured for 24 hours in the presence of 1, 10, 50 and 100 μM of NAPS, TAPS, and PS to examine the effect of cytotoxicity, i.e. the degree of proliferation of the cells. C2-ceramide was used as control. The medium used in this experiment was RPMI 1640 suplemented with 10% of FBS and 100 μg/ml of penicillin and streptomycin.

[3] = MTT assay, cytotoxicity in human skin cancer cell line; assay type: cell-based; settings: human, Cell viability
Procedure, shortened: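 A431 cells were seeded in serum-free medium and, about 3 h later, treated 24 h with phytosphingosine derivatives at final 1–100 μM (DMSO vehicle). MTT (2 mg/ml) was then added for 4 h, and the formazan was dissolved in DMSO and read at 540 nm for viability. C2-ceramide served as comparator.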

[4] = MTT assay, cytotoxicity in HUVEC; assay type: cell-based, human; settings: human
Procedure, shortened: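 Primary HUVEC cultured from human umbilical vein; cells in serum-free medium were exposed to phytosphingosine derivatives at final 1–100 μM for 24 h. Viability by MTT (2 mg/ml, 4 h), formazan dissolved in DMSO and read at O.D. 540 nm; C2-ceramide run for comparison.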

[5] = test system: immune cells (T cells, B cells, macrophages, monocytes) from spleen of mice; experiment: MTT assay, cytotoxicity in immune cells separated from spleen of mice; assay type: cell-based; settings: mouse spleen immune cells, 24 hours, FIG. 2; read-out: IC50 (cytotoxicity)
Method: as §1

[6] = test system: peripheral blood mononuclear cells (PBMC); experiment: MTT assay, cytotoxicity in peripheral blood mononuclear cells; assay type: cell-based, human; settings: FIG. 3
Method: The effects of the composition of the present invention on the cytotoxicity in immune cells (T cells, B cells, macrophages, monocytes, etc.) obtained from human blood were examined. The blood was obtained from healthy volunteers and PBMC from the blood by mechanical aggregation method. And mononuclear cells containing T cells, B cells, macrophages and monocytes were isolated from single cells by density gradient centrifugation method using Ficoll Hypaque. Briefly, single cells were treated with PBS and overlayed on Ficoll Hypaque and centrifuged at 1500 rpm for 30 min. After centrifugation, the cells around the boundary of the Ficoll-Hapaque were collected and washed three times with PBS. […] And RPMI with 10% of serum was used as a medium. The isolated cells were cultured for 24 hours in the presence of 1, 10, 50 and 100 μM of NAPS, TAPS, and PS to examine the effect of cytotoxicity, i.e. the degree of proliferation of the cells. C2-ceramide was used as control.

HaCaT cells = experiment: Mitosis by immunofluorescence (β-tubulin, DAPI); assay type: cell-based, human; settings: 30 μM, 24 hours versus 12 hours, FIG. 9
Method: Next, the cell cycle is observed according to the immunofluorescence method. In order to look into from which step among G2/M phase the induction of apoptosis by TAPS is induced, mitosis is observed by using β-tubulin. HaCaT cells are cultured on a dish with a cover slip and treated with TAPS (30 μM). The cells are washed with PBS at each time interval, fixed with 5% paraformaldehyde for 15 minutes, and reacted with β-tubulin antibody (1:100) for 1 hour. They were washed with PBS and reacted with Cy3-conjugated anti-mouse IgG secondarily. For DNA staining, 0.3 μg/ml of DAPI (Sigma) is added to the cells, which are observed by using a fluorescent microscope.

CCCCCCCCCCCCCC[C@@H](O)[C@@H](O)[C@H](CO)NC(C)=O [NAPS, N-acetyl phytosphingosine]
viability at 24 h, 1 µM ([1]; 1 μM + UVB 200 J/m^2, 24 hours): 27 ± 5.8%
viability at 24 h, 1 µM ([1]; 1 μM, no UVB, 24 hours): 130 ± 10%
viability at 24 h, 3 µM ([1]; 3 μM + UVB 200 J/m^2, 24 hours): 17 ± 1.6%
viability at 24 h, 3 µM ([1]; 3 μM, no UVB, 24 hours): 117 ± 9.7%
viability at 24 h, 5 µM ([1]; 5 μM + UVB 200 J/m^2, 24 hours): 11 ± 1.3%
viability at 24 h, 5 µM ([1]; 5 μM, no UVB, 24 hours): 110 ± 14%
viability at 24 h, 10 µM ([1]; 10 μM + UVB 200 J/m^2, 24 hours): 1 ± 0.1%
viability at 24 h, 10 µM ([1]; 10 μM, no UVB, 24 hours): 67 ± 12%
IC50 at 24 h [2]: ~75 µM
viability at 24 h, 3 µM [3]: 100 ± 10.2%
viability at 24 h, 10 µM [3]: 75 ± 6.9%
viability at 24 h, 30 µM [3]: 31 ± 10%
viability at 24 h, 50 µM [3]: 1 ± 0.2%
viability at 24 h, 3.5 µM [4]: 66 ± 7.5%
viability at 24 h, 7 µM [4]: 51 ± 10.5%
viability at 24 h, 15 µM [4]: 19 ± 3.4%
viability at 24 h, 30 µM [4]: 14 ± 0.6%

tetraacetyl phytosphingosine [TAPS]
IC50 [5]: 100 µM
concentration that shows the strong cytotoxicity ([6]; human PBMC): 50 µM
cytotoxicity to PBMC ([6]; up to 100 μM, 24 hours): strong cytotoxicity
cells with chromosomes condensed (HaCaT cells): more cells with chromosomes condensed are observed 24 hours after treating with TAPS than 12 hours after
